In patent publication US8426417B2, “Substituted pyrrolo-pyrimidine derivatives, process for their preparation and their use as kinase inhibitors” (priority 2007, dated 2013) one finds IC50 data, which are given here for 1 compound.

The target in this assay is T1, PLK1 enzyme KD (Kinase Domain) 2-345 (Homo sapiens, UniProt P53350).
T1 construct: PLK1 kinase domain (corresponding to residues 2-345) was PCR amplified; His tag (N, cleaved yes); TEV cleavage site (N, cleaved yes); made in house; host or cells: High5 insect cells (baculovirus generated in Sf9)
T1 sequence (P53350 2-345): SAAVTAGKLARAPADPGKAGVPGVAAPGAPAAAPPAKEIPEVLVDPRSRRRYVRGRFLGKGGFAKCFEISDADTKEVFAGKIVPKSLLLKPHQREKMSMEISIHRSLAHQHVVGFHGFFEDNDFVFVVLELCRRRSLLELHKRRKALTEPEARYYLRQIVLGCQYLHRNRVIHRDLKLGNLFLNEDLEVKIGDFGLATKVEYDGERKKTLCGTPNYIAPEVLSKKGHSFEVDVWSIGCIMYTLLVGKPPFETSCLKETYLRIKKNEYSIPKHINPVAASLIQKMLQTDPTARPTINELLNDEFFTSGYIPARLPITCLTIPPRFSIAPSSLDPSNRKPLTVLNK
The experiment in a line: Biochemical assay for inhibitors of PLK-1 kinase activity (trans-phosphorylation, Dowex resin, 33P-ATP). Particulars: PLK1 KD 2-345 3 nM, 40 microM ATP, 85 microM alpha-casein, 60 minutes at room temperature. How it is done:
The inhibitory activity of putative kinase inhibitors and the potency of selected compounds were determined using a trans-phosphorylation assay.
Three cycles of mixing are done immediately after the addition of the resin.

Regarding `O=C1NCCc2[nH]c(-c3ccnc(Nc4ccccc4)n3)cc21` [Reference Compound], the IC50 (commonly the concentration that gives 50% inhibition) worked out at 110 nM.
